The text below walks through data of patent US7989589B2, “Compstatin analogs with improved activity” (The Trustees Of The University Of Pennsylvania, priority 2002, dated 2011).

In assay [1] the test system is activation of the complement system by immunocomplexes (C3 fixation). The experiment in a line: Complement inhibition assay: inhibition of C3 fixation (C3b/iC3b deposition) to ovalbumin-anti-ovalbumin complexes in normal human plasma. The assay is classed as biochemical. The following applies: complement-inhibiting activity.
Description: Complement activation inhibition was assessed by measuring the inhibition of C3 fixation to ovalbumin—anti-ovalbumin complexes in normal human plasma. Microtiter wells were coated with 50 μl of ovalbumin (10 mg/ml) for 2 hr at 25° C. (overnight at 4° C.). The wells were saturated with 200 μl of 10 mg/ml BSA for 1 hr at 25° C. and then a rabbit anti-ovalbumin antibody was added to form an immunocomplex by which complement can be activated. Thirty microliters of peptides at various concentrations were added directly to each well followed by 30 μl of a 1:80 dilution of human plasma. After 30 min incubation, bound C3b/iC3b was detected using a goat anti-human C3 BRP-conjugated antibody. Color was developed by adding ABTS peroxidase substrate and optical density measured at 405 nm. The concentration of the peptide causing 50% inhibition of C3b/iC3b deposition was taken as the IC50 and used to compare the activities of various peptides.
For assay [2], the system named is complement activation in human serum. To be noted: cited from earlier work.
The test system of assay [3] is porcine-to-human xenograft. The following applies: porcine-to-human xenograft perfused with human blood; cited from earlier work. For orientation: Xenograft models place foreign cells or tissue in a host animal.
For assay [4], the system named is complement activation. To be noted: cardio-pulmonary bypass, plasmapheresis, dialysis models; cited from earlier work.
The test system of assay [5] is heparin/protamine-induced complement activation. The following applies: primates; cited from earlier work.
In assay [6] the test system is alternative pathway-mediated erythrocyte lysis. The following applies: cited from earlier work.
In assay [7] the test system is complement activation. To be noted: in vivo animal models; cited from earlier work.

Take “Ac-ICVWQDWGAHRCdT-COOH [Ac- 4W, 9A13dT —OH]”: the “activity compared with another peptide (in words)” value in assay [1] is reported as “activity equal to that of peptide SEQ ID NO:5”.

Regarding `CC[C@H](C)[C@H](N)C(=O)N[C@H]1CSSC[C@@H](C(=O)N[C@H](C(N)=O)[C@@H](C)O)NC(=O)[C@H](CCCN=C(N)N)NC(=O)[C@H](Cc2cnc[nH]2)NC(=O)[C@H](Cc2cnc[nH]2)NC(=O)CNC(=O)[C@H](Cc2c[nH]c3ccccc23)NC(=O)[C@H](CC(=O)O)NC(=O)[C@H](CCC(N)=O)NC(=O)[C@H](C(C)C)NC(=O)[C@H](C(C)C)NC1=O` [Compstatin], the “inhibition of complement activation in human serum” value in assay [2] is reported as “inhibit complement activation in human serum”. For the same molecule, the lifetime of xenograft entry in assay [3] is on record as “prolong the lifetime of a porcine-to-human xenograft perfused with human blood”. The “inhibition of complement activation in extra-corporeal circuit models” value with complement activation [4] is “inhibit complement activation in models of cardio-pulmonary bypass, plasmapheresis, and dialysis extra-corporeal circuits”. In addition, the “inhibition of heparin/protamine-induced complement activation” value in assay [5] is “inhibit heparin/protamine-induced complement activation in primates without significant side effects”. Moreover, the IC50 (commonly the concentration at which inhibition is half-maximal) in assay [6] was 12 µM.

As for “sCR1: recombinant form of complement receptor 1 known as soluble complement receptor 1”, in the assay on complement activation [7], the “suppression of complement activation” value is on record as “suppress complement activation in in vivo animal models”.
